Legend:
5-lipoxygenase [1] = assay: inhibition of 5-lipoxygenase activity in polymorphonuclear rat leucocytes (LTB4 formation); assay type: cell-based; settings: 10^-5 mol/l; 22° C.
Excerpt: 4. In vitro determination of 5-lipoxygenase inhibition. 4a. In vitro determination of inhibition of 5-lipoxygenase activity in polymorphonuclear rat leucocytes. Arachidonic acid contained in cell membranes is released after activiation of the polymorphonuclear leucocytes (=PMN). During the course of this, under the action of the enzyme 5-lipoxygenase (=5-LO) arachidonic acid metabolites are synthesized which can be converted to leucotriene B4 (=LTB4) by LTA4 hydrolase. LTB4 is a principal metabolite of the arachidonic acid metabolism taking place on activation of the enzyme 5-LO by the inflammatory stimulus in the cell membrane. In in vitro systems, this metabolite is secreted from PMNs. […] To accomplish this, the content of LTB4 in a culture medium of rat peritoneal PMNs was determined after stimulation by calcimycin (=calcium-ionophore A23187) such as described by […] et al., Can. J. Physiol. Pharmacol. 67 (1989), 17. A cell suspension containing peritoneal PMNs of male Sprague-Dawley rats (body weight 200 to 250 g) was obtained in a known manner as follows: 6 ml of a solution containing 27.9 g/l of sodium thioglycolate were injected i.p. into the animals in order to induce the PMN invasion due to this inflammatory stimulus. After 22 hours, the animals were sacrificed by means of lethal ether anaesthesia. 20 ml of a Hank's salt solution (=Hank's Balanced Salt Solution=HBSS), but without Ca^++ and Mg^++ ions and with 0.2% by weight of sodium citrate, were then injected into the abdominal cavity. The suspension of accumulated cells was removed from the abdominal cavity and the cells were separated by centrifugation (10 minutes at 400×g). The cells were purified by repeated centrifugation in the presence of Ficoll-Paque®, (=metrizoic acid preparation, […], manufacturer Pharmacia), then washed twice with HBSS containing Ca^++ and Mg^++ ions and resuspended in HBSS containing Ca^ ++ and Mg^++ ions and buffered with 10 mM HEPES (=hydroxyethylpiperazinoethanesulfonic acid). In order to carry out the tests, samples of 0.7 ml of the PMN suspension (=0.5×10^6 cells) in each case were incubated for 15 minutes at 22° C. in plastic tubes containing 10 μM of the test substance in dimethylformamide or, as a control experiment, only containing dimethylformamide. The LTB4 synthesis was initiated in the samples by addition of calcimycin (final concentration 5 μm), and the samples were incubated for 10 minutes at 22° C. Only solvent was added to blank control samples. After 10 minutes, the reaction was terminated by addition of 0.3 ml of cold methanol. The samples were kept for 1 hour at 4° C. and then centrifuged (5 minutes at 10,000×g). The supernatant liquid was investigated to determine its LTB4 content by means of reverse phase high-pressure liquid chromatography (=reverse phase HPLC). […] The LTB4 was identified by comparison with authentic standard solutions eluting at the same time and determined at a wavelength of 270 nm. The LTB4 contents are determined from comparison with calibrated standard solutions, and from this the inhibitory activity of the test substances was calculated in % inhibition of the LTB4 synthesis in comparison with the control samples containing no test substance.

[2] = tested on: cutaneous histamine induced anaphylactoid reactions; assay: inhibition of the anaphylactoid cutaneous reaction induced by histamine; assay type: in vivo, Sprague-Dawley rats; settings: Rattus norvegicus, po, 0.5 h; 2 × 10^-5 mole/kg p.o., one hour before histamine; assessed 30 minutes after provocation; read-out: Inhibitory action against cutaneous histamine induced anaphylactoid reactions in rats, % inhibition
Procedure: 1. Determination of the inhibition of the anaphylactoid cutaneous reaction induced by histamine.
The inhibition of the anaphylactoid cutaneous reaction induced by histamine was determined in Sprague-Dawley rats having body weights of 150-180 g.
In order to determine the histamine-induced anaphylactoid skin reaction, 50 μl of a physiological saline solution containing 0.8 mg/ml of histamine were injected into the animals intradermally on one flank. Immediately afterward, a solution of 26.4 mg/kg of a blue dye (Evan's Blue) was administered i.v. to the animals.
The test substances were dissolved in distilled water which contains 1% by volume of dimethylformamide and 1% by volume of Tween®20 (=polyoxyethylene(20) sorbitan monolaurate). One hour before the histamine injection, each animal received 2×10^-5 mol/kg of test substance, in each case administered orally in 0.5 ml of solution. A control group received only the solvent for comparison.
The histamine-induced anaphylactoid reactions which manifested themselves by edema formation, swelling and exudation of blue dye are assessed 30 minutes after provocation by the histamine injection. This is carried out by visual determination of the extent of the exudation of blue dye at the sites of edema formation. With the aid of comparison scales, the percentage inhibition of the anaphylactoid reactions produced by the test substances is determined in comparison with the reactions of the control animals not treated with test substance.
The results obtained with compounds of the formula I by the above test method are reproduced in the following table A. The example numbers given as identifiers for the compounds of formula I refer to the subsequent preparative examples.

5-lipoxygenase [3] = target: T1, 5-lipoxygenase (Homo sapiens, UniProt P09917); assay: 5-lipoxygenase inhibition in human blood (LTB4 formation); assay type: cell-based; settings: 0.5 h; 10^-5 mole/liter; human whole blood, 37° C.; read-out: In vitro % inhibitory activity on LTB4 formation in human blood stimulated by calcimycin
T1 construct: the 5-LO activity in human whole blood; from tissue; host or cells: heparinized human whole blood
T1 sequence (P09917 1-674): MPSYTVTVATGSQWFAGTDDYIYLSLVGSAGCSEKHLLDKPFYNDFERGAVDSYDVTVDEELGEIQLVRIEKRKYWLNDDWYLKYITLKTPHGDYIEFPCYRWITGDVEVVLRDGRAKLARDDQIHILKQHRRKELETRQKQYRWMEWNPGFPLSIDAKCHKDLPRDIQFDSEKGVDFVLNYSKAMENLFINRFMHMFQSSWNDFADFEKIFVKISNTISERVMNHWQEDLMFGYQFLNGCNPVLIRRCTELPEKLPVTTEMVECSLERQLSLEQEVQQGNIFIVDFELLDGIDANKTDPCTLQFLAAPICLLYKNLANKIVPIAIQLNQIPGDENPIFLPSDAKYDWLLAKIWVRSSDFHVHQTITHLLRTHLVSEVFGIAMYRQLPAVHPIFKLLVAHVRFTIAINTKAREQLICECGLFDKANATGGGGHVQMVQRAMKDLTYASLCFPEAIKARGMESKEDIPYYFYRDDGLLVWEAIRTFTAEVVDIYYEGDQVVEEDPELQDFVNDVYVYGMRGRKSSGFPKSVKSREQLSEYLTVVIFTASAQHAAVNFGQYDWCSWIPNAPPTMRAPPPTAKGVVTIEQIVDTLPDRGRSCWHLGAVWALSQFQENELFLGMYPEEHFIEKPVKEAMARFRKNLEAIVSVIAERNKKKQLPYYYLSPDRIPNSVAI
Procedure: 4c. In vitro determination of 5-lipoxygenase inhibition in human blood.
The inhibitory activity of the test substances on the 5-LO activity in human whole blood taking place after stimulation by calcimycin is investigated according to the method described by P. Gresele et al. (Biochem. Biophys. Commun. 137 (1986), 334).
For carrying out the test, human blood is collected in sterile 50 ml test tubes which contain 10 units of heparin/ml of blood and incubated for 5-10 minutes at 37° C. Amounts of test substance, dissolved in 10 μl of dimethylformamide, are added to 2 ml samples of this blood such that a final concentration of test substance of 10 μmol/l is achieved in the samples. Only 10 μl of the solvent were added to control samples. The samples were then incubated for 10 minutes at 37° C. In order to stimulate LTB4 synthesis, an amount of calcimycin, dissolved in 200 μl of plasma, was added to the samples such that a calcimycin concentration of 60 μmol/l was achieved, and the samples were incubated for a further 30 minutes at 37° C. The reaction was then terminated by addition of 200 μl of an ethylene glycol tetraacetate solution (corresponding to an ethylene glycol acetate concentration in the sample of 100 mmol/l). The samples are kept in an ice-bath for 10 minutes and then centrifuged (5 minutes at 1000×g). The supernantant liquids, which contain the LTB4 formed during the reaction time, are each separated and, for precipitation of the proteins contained therein, mixed with 3 ml of acetone and kept for 45 minutes at 4° C. Then the samples are centrifuged again (5 minutes at 1500×g), the supernatant liquids are separated, and the content of LTB4 therein is determined in a known manner by means of an enzyme immunoassay (=EIA). From the measured LTB4 values, the inhibitory activity of the test substances in human whole blood was calculated in % inhibition of LTB4 synthesis in comparison to the control samples containing no test substance.

[4] = tested on: P.A.F.-induced aggregation of blood platelets; assay: anti-P.A.F. action in vitro (P.A.F.-induced platelet aggregation); assay type: cell-based; settings: Oryctolagus cuniculus, 10^-5 mole/liter, read-out: Anti-P.A.F. activity in vitro, % inhibition of the P.A.F.-induced aggregation of blood platelets from rabbit blood
Excerpt: 3. Determination of the anti-P.A.F. action in vitro.
P.A.F. (=Platelet Activating Factor=Platelet Aggregation Factor) is a phospholipid mediator which has a multiplicity of actions. The activation of blood platelet aggregation results in the induction of long-lasting bronchoconstrictions and hyperreactivity of the respiratory passages.
In this test, the effect of the test substances on platelet aggregation induced by addition of P.A.F. in a platelet suspension obtained from rabbit blood was investigated according to the method described by Mikashima et al. (Jap. J. Pharmacol. 44 (1987) 387-391).
A suspension of platelets obtained from rabbit blood was used which contains 4×10^9 platelets/ml in a modified Tyrode buffer solution (=Tyrode solution with the addition of 1.3 mM/l of CaCl2 and 2.5 g/l of gelatine) adjusted to pH 7.4. Tyrode solution is an aqueous solution containing, per liter, 136.9 mmole of NaCl, 2.68 mmole of KCl, 2.31 mmole of CaCl2, 1.0 mmole of MgCl2, 11.9 mmole of NaHCO3, 1.45 mmole of NaH2 PO4 and 5.55 mmole of glucose. The platelets were concentrated from 10 ml blood samples of three rabbits (New Zealand hybrids, body weight 3-4 kg) in each case. To accomplish this, the blood samples were treated with ethylenediaminetetraacetic acid and washed according to the method of Artley et al. (Brit. J. Haematol. 19 (1970), 7-17). A platelet-rich plasma was first separated by centrifugation (20 minutes at 400×g). The platelets were separated from the plasma by repeated centrifugation for 15 minutes at 1400×g.After the centrifugation, the blood platelets remaining in the sediment were resuspended in a Tyrode buffer solution (but without calcium). 0.4 mmole of lysine acetylsalicylate was then added, and the blood platelets were sedimented again after 15 minutes. The sediment was resuspended in the aforementioned modified Tyrode buffer solution, and the number of platelets in the suspension obtained was adjusted to the desired content.
A 40×10^-9 molar P.A.F. solution was employed as a reagent. This solution was prepared from a 1.8×10^-3 molar stock solution in chloroform. To do this, a 10 μl sample of the stock solution was evaporated to dryness and dissolved again in 180 μl of the modified Tyrode buffer solution, to which 0.25% of lipid-free bovine serum albumin had been added. 10^-5 molar working solutions were then prepared from this and stored frozen. Samples of these solutions were appropriately diluted for tests.
In order to carry out the test, 50 μl of the blood platelet suspension and 10 μl of a 40×10^-5 molar solution of the compound to be investigated were added to […] of the modified Tyrode buffer solution with stirring (1000 rpm) in an aggregation tube provided with a small magnetic stirrer. This corresponded to a final test substance concentration of 10^-5 mole/l. After a preincubation time of 90 seconds, 10 μl of the P.A.F. preparation were added. For 4-5 minutes, the aggregation occurring in the aggregation tube was measured by means of a computerized aggregometer.
The aggregation occurring in the test tubes containing only the platelet suspension is rated as 0%. The aggregation occurring in the test tubes containing platelet suspension and P.A.F. preparation, in which a P.A.F.-induced increase in platelet aggregation takes place, is rated as 100%. The aggregation still occurring after addition of the test substances is measured, and from this the inhibition of the P.A.F.-inducedincrease in aggregation which takes place is calculated in %.

male mice = settings: mouse, in vivo, po, 1440 min
Procedure: 2. Determination of the minimum toxic dose.
Maximum doses of 300 mg/kg of the test substance were administered orally to male mice each weighing 20-25 g. The animals were carefully observed for symptoms of toxicity for 3 hours. All symptoms and deaths were additionally recorded over a period of 24 hours after administration. Associated symptoms were likewise observed and recorded. If death or severely toxic symptoms were observed, increasingly lower doses were administered to further mice. The lowest dose which caused death or severely toxic symptoms is indicated as the minimum toxic dose in the following Table B: […]

SMILES	In vitro inhibitory activity on LTB4 formation in rat PMNs stimulated by calcium ionophore A23187 (5-lipoxygenase [1]) [%]	inhibition in vivo at 20 µmol/kg [2] [%]	inhibition at 10 µM (5-lipoxygenase [3]) [%]	inhibition at 10 µM [4] [%]	Minimum toxic dose (male mice) [mg/kg]
Cc1cccnc1N1CCN(CCCC2Cn3c(-c4ccc(O)cc4)c(C)c4cccc(c43)O2)CC1 (centres unmarked) [Example 41]	84	60	100	–	–
Cc1ccc(N2CCN(CCC3Cn4c(-c5ccc(O)cc5)c(C)c5cccc(c54)O3)CC2)nc1 (centres unmarked) [Example 31]	81	58	–	52	–
Cc1cccnc1N1CCN(CCC2Cn3c(-c4ccc(O)cc4)c(C)c4cccc(c43)O2)CC1 (centres unmarked) [Example 32]	98	57	–	79	–
Cc1cccc(N2CCN(CCC3Cn4c(-c5ccc(O)cc5)c(C)c5cccc(c54)O3)CC2)n1 (centres unmarked) [Example 33]	90	39	–	43	–
Cc1c(-c2ccc(O)cc2)n2c3c(cccc13)OC(CCN1CCN(c3ccccn3)CC1)C2 (centres unmarked) [Example 30]	100	47	–	69	–
COc1ccc(-c2c(C)c3cccc4c3n2CC(CN2CCN(c3cc(C)ccn3)CC2)O4)cc1 (centres unmarked) [Example 5, 2,3-Dihydro-5-(4-methoxyphenyl)-6-methyl-2-[4-(4-methylpyridin-2-yl)piperazin-1-ylmethyl]pyrrolo[1,2,3-de]-1,4-benzoxazine]	–	–	–	100	> 300

From patent publication US5474988A, “5-phenylpyrrolo-1,4-benzoxazine and 5-phenylpyrrolo-1,4-benzothiazine compounds, process and intermediates for their production and pharmaceutical compositions containing them” (Kali-Chemie Pharma GmbH, priority 1993, dated 1995)
